Data on seven compounds can be found in patent US20240228438A1, “SOLID FORMS OF SALTS OF 4-[5-[(3S)-3-AMINOPYRROLIDINE-1-CARBONYL]-2-[2-FLUORO-4-(2- HYDROXY-2-ETHYLPROPYL)PHENYL]PHENYL]-2-FLUORO-BENZONITRILE” (Astex Pharmaceuticals, Inc., priority 2021, published 2024).

Data set [1] in a line: Stability testing: water absorption of salt forms at 40° C. and 75% RH for five days (KF). Type of data set: physicochemical. Conditions: for KF water content after 5 days at 40° C./75% RH: open vial covered with Kim wipe; for Initial KF: water content before exposure. The method, then: The stability of different salt forms was tested. The salts were placed in 20-mL scintillation vials and covered with Kim wipe, and the resulting vials were exposed to 40° C. and 75% RH (relative humidity) for five days. The samples were analyzed for water absorption.

The nature of data set [2]: Aqueous solubility of the salt form (overall assessment). Conditions: in words. In kind it is physicochemical.

Structures can show the parent of a compound that is named as a salt.

Regarding `CC(C)(O)Cc1ccc(-c2ccc(C(=O)N3CC[C@H](N)C3)cc2-c2ccc(C#N)c(F)c2)c(F)c1` [mono-fumarate Form VI], in data set [1] (40° C./75% RH, five days, result in words), the “moisture take-up under the tested conditions” value is “did not take-up moisture”. In addition, the “KF water content after 5 days at 40° C./75% RH” value in data set [1] (five days) stood at 0.63%. Also, in data set [1], the “Initial KF” value is reported as 0.61%.

`CC(C)(O)Cc1ccc(-c2ccc(C(=O)N3CC[C@H](N)C3)cc2-c2ccc(C#N)c(F)c2)c(F)c1` [mesylate Form IIIA, 4-[5-[(3S)-3-aminopyrrolidine-1-carbonyl]-2-[2-fluoro-4-(2-hydroxy-2-methylpropyl)phenyl]phenyl]-2-fluoro-benzonitrile mesylate]: the “Initial KF” value in data set [1] (mesylate) was determined as 2.55%.

Regarding `CC(C)(O)Cc1ccc(-c2ccc(C(=O)N3CC[C@H](N)C3)cc2-c2ccc(C#N)c(F)c2)c(F)c1` [esylate Form IVA, 4-[5-[(3S)-3-aminopyrrolidine-1-carbonyl]-2-[2-fluoro-4-(2-hydroxy-2-methylpropyl)phenyl]phenyl]-2-fluoro-benzonitrile esylate], the “Initial KF” value in data set [1] was found to be 0.76%.

For `CC(C)(O)Cc1ccc(-c2ccc(C(=O)N3CC[C@H](N)C3)cc2-c2ccc(C#N)c(F)c2)c(F)c1` [mono-oxalate (from EtOH) Form II, 4-[5-[(3S)-3-aminopyrrolidine-1-carbonyl]-2-[2-fluoro-4-(2-hydroxy-2-methylpropyl)phenyl]phenyl]-2-fluoro-benzonitrile mono-oxalate], in data set [1] (five days, mono-oxalate), the “KF water content after 5 days at 40° C./75% RH” value is 4.46%. For the same compound, the hygroscopicity entry in data set [1] (overall assessment, in words) is reported as “slightly hygroscopic”. For the same compound, the “Initial KF” value in data set [1] (mono-oxalate) came to 1.06%. Moreover, the aqueous solubility result in data set [2] was “good aqueous solubility”.

With `CC(C)(O)Cc1ccc(-c2ccc(C(=O)N3CC[C@H](N)C3)cc2-c2ccc(C#N)c(F)c2)c(F)c1` [mono-oxalate salt (from IPA)], the “KF water content after 5 days at 40° C./75% RH” value in data set [1] (five days) is 4.99%. Also, the “Initial KF” value in data set [1] was determined as 2.66%.

Take `CC(C)(O)Cc1ccc(-c2ccc(C(=O)N3CC[C@H](N)C3)cc2-c2ccc(C#N)c(F)c2)c(F)c1` [hemi-fumarate Form I, 4-[5-[(3S)-3-aminopyrrolidine-1-carbonyl]-2-[2-fluoro-4-(2-hydroxy-2-methylpropyl)phenyl]phenyl]-2-fluoro-benzonitrile hemi fumarate]: the “KF water content after 5 days at 40° C./75% RH” value in data set [1] (five days) stood at 1.57%. Also, in data set [1] (overall assessment, in words), the hygroscopicity entry was “slightly hygroscopic” and the residual water result is on record as “low residual water”. Also, in data set [1], the “Initial KF” value is 0.69%.

Take `CC(C)(O)Cc1ccc(-c2ccc(C(=O)N3CC[C@H](N)C3)cc2-c2ccc(C#N)c(F)c2)c(F)c1` [maleate Form V, 4-[5-[(3S)-3-aminopyrrolidine-1-carbonyl]-2-[2-fluoro-4-(2-hydroxy-2-methylpropyl)phenyl]phenyl]-2-fluoro-benzonitrile maleate]: in data set [1] (maleate), the “Initial KF” value stood at 1.08%.
